We go through 76 compounds from paper PMC7533260, “Design and tests of prospective property predictions for novel antimalarial 2-aminopropylaminoquinolones” (Journal of Computer-Aided Molecular Design, 2020).

As a reminder, the Ki is the dissociation constant of the complex between target and ligand, obtained from inhibition or displacement. One may read the IC50 as the concentration at which inhibition is half-maximal.

Molecules are shown by their SMILES.

The target in the first test is T1, s-PfDHODH (Plasmodium falciparum, UniProt Q08210).
T1 sequence (Q08210 158-569 limits assumed): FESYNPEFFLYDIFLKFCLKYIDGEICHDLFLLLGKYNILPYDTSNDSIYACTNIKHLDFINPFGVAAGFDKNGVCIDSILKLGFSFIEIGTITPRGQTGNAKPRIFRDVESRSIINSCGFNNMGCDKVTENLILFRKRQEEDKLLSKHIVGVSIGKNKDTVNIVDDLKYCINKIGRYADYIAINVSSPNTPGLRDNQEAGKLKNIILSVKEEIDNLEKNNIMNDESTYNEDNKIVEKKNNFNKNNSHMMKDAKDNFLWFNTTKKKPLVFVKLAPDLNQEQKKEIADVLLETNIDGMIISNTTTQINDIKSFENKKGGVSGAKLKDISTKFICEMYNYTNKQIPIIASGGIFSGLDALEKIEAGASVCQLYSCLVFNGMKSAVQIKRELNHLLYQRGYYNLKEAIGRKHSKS
Description: Literature inhibition data for soluble recombinant PfDHODH (s-PfDHODH), dodecylubiquinone as substrate. Format: biochemical.
Settings: not given
An excerpt: Data on PfDHODH inhibition were collected from the literature for a structurally diverse group of compounds. These included triazolopyrimidines, diphenylureas, and 2-cyano-3-hydroxy acrylanilides, among others. Quantitative data were not available for inhibition of the intact enzyme, which is bound to the mitochondrial membrane by its hydrophobic N-terminus in vivo [16]. […] The very low solubility of CoQ-10 limits its utility in vitro, so an artificial ubiquinone (dodecylubiquinone [DQ]) is usually used as substrate instead.
The IC50 data for these 89 compounds were converted to inhibition constants (Ki’s) by assuming competitive inhibition against DQ and applying the method described by Cheng and Prusoff. Two artificial neural network ensemble (ANNE) regression models were constructed (henceforth referred to as Model A and Model B) using ADMET Modeler™ module of ADMET Predictor® [18]. The models were built on distinct 20% hold-out test sets (see Supplementary Methods for details).
With `Cc1cc(Nc2ccc3cc4ccccc4cc3c2)n2ncnc2n1` [Tz20], the Ki worked out at 20 nM.

Regarding `COc1ccccc1NC(=O)Nc1cccc2ccccc12` [Compound B12], the inhibitory constant (Ki) is 120 nM.

Take `CCOC(=O)C(=CNc1ccc(C)cc1)C(=O)OCC` [He08]: the Ki is 4600 nM.

As to `CCOC(=O)C(=CNc1ccc2[nH]cnc2c1)C(=O)OCC` [He10], the Ki is 40200 nM.

Take `C/C(O)=C(/C#N)C(=O)Nc1ccc(-c2c(Cl)cccc2Cl)cc1Cl` [Compound D21]: the Ki was determined as 1200 nM.

Take `CCCNC(=O)c1ccc(-n2ccc3ccccc32)s1` [Compound P06]: the Ki worked out at 200 nM.

As to `CCOC(=O)/C(C#N)=C\Nc1ccc2c(c1)c1ccccc1n2CC` [He06], the inhibitory constant (Ki) was determined as 50 nM.

For the compound `Cc1c(C(=O)Nc2ccc(F)c(F)c2)cccc1[N+](=O)[O-]` [Compound B07], the Ki came out at 140 nM.

Turning to `Cc1c(C(=O)Nc2ccc(Cl)c(Cl)c2)cccc1[N+](=O)[O-]` [Compound B09], the Ki was 40 nM.

For the compound `O=C(Nc1ccccc1C(F)(F)F)Nc1cccc2ccccc12` [Compound B11], the Ki was 180 nM.

For the compound `C/C(O)=C(/C#N)C(=O)Nc1ccc(-c2ccccc2)cc1` [Compound D10], the inhibitory constant (Ki) came out at 3000 nM.

For the compound `Cc1c(C(=O)Nc2ccc(F)c(Cl)c2)cccc1[N+](=O)[O-]` [Compound B05], the inhibitory constant (Ki) was 40 nM.

On to `C/C(O)=C(/C#N)C(=O)Nc1ccc(-c2ccccc2Cl)cc1` [Compound D27], for which the Ki stood at 5600 nM.

Consider `CCCNC(=O)c1ccc(-n2c(C)cc3ccccc32)s1` [Compound P03], for which the Ki is 20 nM.

With `Cc1c(C(=O)Nc2cccc(Br)c2)cccc1[N+](=O)[O-]` [Compound B04], the Ki is 20 nM.

In the case of `O=C(Nc1ccccc1F)c1ccc2ccccc2c1` [Compound B03], the Ki was found to be 200 nM.

Turning to `Cc1cc(Nc2ccc(C#N)c(C(F)(F)F)c2)n2ncnc2n1` [Compound G45], the inhibitory constant (Ki) stood at 1960 nM.

`C/C(O)=C(/C#N)C(=O)Nc1ccc(-c2ccccc2Cl)c(Cl)c1` [Compound D24]: the Ki turned out to be 20500 nM.

Turning to `Cc1c(C(=O)Nc2cccc3ccccc23)cccc1[N+](=O)[O-]` [Compound B08], the Ki came out at 30 nM.

For the compound `C/C(O)=C(\C#N)C(=O)Nc1ccc(-c2cccc(Cl)c2)cc1C(F)(F)F` [Compound D23], the Ki came out at 6800 nM.

Take `Cc1cc(Nc2ccccc2)n2ncnc2n1` [Tz19]: the Ki came to 40000 nM.

Turning to `O=C(Nc1ccc(Cl)cc1Cl)c1ccc2ccccc2c1` [Compound B01], the Ki worked out at 30 nM.

Turning to `CCOC(=O)C(=CNc1ccc2sc3ccccc3c2c1)C(=O)OCC` [He05], the Ki turned out to be 20 nM.

In the case of `CCOC(=O)C(=CNc1cccc(-c2ccccc2)c1)C(=O)OCC` [He14], the Ki came out at 10000 nM.

Regarding `CCOC(=O)C(=CNc1ccccc1C)C(=O)OCC` [He09], the Ki turned out to be 39700 nM.

As to `Cc1c(C(=O)Nc2cccc(C(F)(F)F)c2)cccc1[N+](=O)[O-]` [Compound B10], the Ki amounted to 40 nM.

For the compound `Cc1cc(Nc2ccc(C(N)=O)cc2)n2ncnc2n1` [Tz13], the Ki amounted to 80000 nM.

As for `O=C(Nc1ccc(Cl)cc1)Nc1cccc2cccnc12` [Compound B13], the inhibition constant (Ki) came to 540 nM.

The test is the same for the next values; noted with them: converted from literature IC50 assuming competitive inhibition against DQ (Cheng and Prusoff); read-out: PfDHODH Ki.
On to `Cc1cc(Nc2ccc(Br)cc2)n2ncnc2n1` [Compound G19], for which the Ki turned out to be 310 nM.

In the case of `Cc1cc(Nc2cc3ccccc3cc2O)n2ncnc2n1` [Tz16], the Ki was found to be 130 nM.

In the case of `C/C(O)=C(/C#N)C(=O)Nc1ccc(-c2ccccc2)cc1Cl` [Compound D28], the inhibitory constant (Ki) came to 6000 nM.

For `Cc1cc(Nc2ccc(F)c(C)c2)n2ncnc2n1` [Compound G40], the Ki was found to be 1840 nM.

For `Cc1c(C(=O)Nc2cc(Cl)cc(Cl)c2)cccc1[N+](=O)[O-]` [Compound B06], the Ki was determined as 10 nM.

Turning to `COc1ccccc1-c1ccc(NC(=O)/C(C#N)=C(\C)O)c(Cl)c1` [Compound D19], the inhibition constant Ki was found to be 1000 nM.

Regarding `Cc1cc(Nc2cc(F)cc(F)c2)n2ncnc2n1` [Compound G38], the Ki stood at 3760 nM.

`C/C(O)=C(\C#N)C(=O)Nc1ccc(-c2ccccc2Cl)cc1C(F)(F)F` [Compound D18]: the Ki was 730 nM.

Consider `Cc1cc(Nc2ccc(Cl)c(C(F)(F)F)c2)n2ncnc2n1` [Compound G41], for which the Ki turned out to be 320 nM.

Turning to `Cc1ccc(Nc2cc(C)nc3ncnn23)cc1` [Compound G20], the Ki is 1680 nM.

In the case of `Cc1nc2ncnn2c(Nc2ccc3ccccc3c2)c1C` [Tz10], the Ki was 60 nM.

Turning to `Cc1cc(Nc2ccc(-c3ccccc3)cc2)n2ncnc2n1` [Compound G26], the Ki is 2120 nM.

As to `CCOC(=O)C(=CNc1ccc2[nH]ncc2c1)C(=O)OCC` [He07], the Ki is 3200 nM.

In the case of `C/C(O)=C(/C#N)C(=O)Nc1ccc(-c2ccccc2Cl)cc1Cl` [Compound D17], the Ki came to 480 nM.

For the compound `Cc1cccc(Nc2cc(C)nc3ncnn23)c1` [Compound G15], the Ki is 1960 nM.

Regarding `Cc1cc(Nc2cccc(Cl)c2)n2ncnc2n1` [Compound G14], the Ki turned out to be 560 nM.

Consider `Cc1cc(Nc2cccc3ccccc23)n2ncnc2n1` [Tz18], for which the Ki stood at 18000 nM.

For the compound `Cc1cc(Nc2cccc(C(F)(F)F)c2)n2ncnc2n1` [Compound G16], the Ki came out at 5600 nM.

For the compound `Cc1ccc(Nc2cc(C)nc3ncnn23)c(F)c1` [Compound G36], the Ki amounted to 10800 nM.

On to `Cc1cc(Nc2ccc(F)c(F)c2)n2ncnc2n1` [Compound G37], for which the Ki turned out to be 3200 nM.

Regarding `Cc1cc(Nc2ccc(C)c(C(F)(F)F)c2)n2ncnc2n1` [Compound G43], the Ki came out at 620 nM.

With `Cc1cc(Nc2ccc(Cc3ccccc3)cc2)n2ncnc2n1` [Compound G27], the Ki came to 880 nM.

For `O=C(NC1CC1)c1ccc(N2CCSc3ccccc32)s1` [Compound P04], the Ki was 110 nM.

As for `Cc1cc(N(Cc2ccccc2)c2ccc3ccccc3c2)n2ncnc2n1` [Tz12], the inhibition constant Ki turned out to be 37200 nM.

For `Cc1cc(Nc2ccc(OC(F)F)cc2)n2ncnc2n1` [Compound G24], the Ki was 1120 nM.

For the compound `Cc1cc(Nc2cnc3ccccc3c2)n2ncnc2n1` [Tz14], the Ki came to 680 nM.

Turning to `Cc1cc(Nc2ccc([N+](=O)[O-])cc2)n2ncnc2n1` [Compound G25], the Ki was found to be 1720 nM.

As to `Cc1cc(Nc2ccc(OC(F)(F)F)cc2)n2ncnc2n1` [Compound G23], the Ki amounted to 480 nM.

For `Cc1cc(Nc2ccc3ncccc3c2)n2ncnc2n1` [Tz15], the Ki is 480 nM.

For the compound `COc1ccc(Nc2cc(C)nc3ncnn23)cc1` [Compound G22], the Ki was determined as 1840 nM.

In the case of `CCCNC(=O)c1ccc(-n2c(C)nc3ccccc32)s1` [Compound P11], the Ki is 70 nM.

Turning to `N#C/C(C(=O)Nc1ccc(C(F)(F)F)cc1)=C(/O)C1CC1` [Compound D04], the Ki was determined as 11000 nM.

`Cc1cc(Nc2ccc(C)c(F)c2)n2ncnc2n1` [Compound G46]: the Ki is 340 nM.

On to `CCCCCC1CCCc2c1nc1ccccc1c2O` (stereo not drawn) [Compound P02], for which the Ki stood at 150 nM.

As for `Cc1cc(Nc2ccc(C)c(C)c2)n2ncnc2n1` [Compound G44], the Ki was determined as 140 nM.

In the case of `Cc1cc(Nc2ccc3c(=O)cc(C)oc3c2)n2ncnc2n1` [Tz17], the Ki came to 800 nM.

`Cc1cc(Nc2ccc(Br)c(C(F)(F)F)c2)n2ncnc2n1` [Compound G42]: the Ki worked out at 180 nM.

Regarding `C/C(O)=C(/C#N)C(=O)Nc1ccc(-c2cccc(Cl)c2Cl)cc1` [Compound D26], the Ki was 3200 nM.

Turning to `Cc1cc(Nc2cc(F)c(F)cc2F)n2ncnc2n1` [Compound G32], the Ki turned out to be 6800 nM.

Consider `Cc1cc(Nc2cccc(F)c2)n2ncnc2n1` [Compound G13], for which the Ki was 3680 nM.

In the case of `Cc1cc(Nc2ccc(F)c(F)c2F)n2ncnc2n1` [Compound G31], the Ki came to 11600 nM.

On to `Cc1ccccc1/C=C/c1cc(O)c2ccccc2n1` [Compound P01], for which the Ki came to 400 nM.

On to `Cc1cc(Nc2ccc(Cl)cc2)n2ncnc2n1` [Compound G18], for which the Ki is 640 nM.

As to `CCCNC(=O)c1ccc(-n2cnc3ccccc32)s1` [Compound P10], the Ki was determined as 300 nM.

On to `Cc1cc(N(C)c2ccc3ccccc3c2)n2ncnc2n1` [Tz11], for which the Ki was 1200 nM.

For the compound `FC(F)(F)c1cc(Nc2ccc3ccccc3c2)n2ncnc2n1` [Tz08], the Ki is 80 nM.

For the compound `Cc1cc(Nc2ccc(F)cc2)n2ncnc2n1` [Compound G17], the inhibitory constant (Ki) came out at 7600 nM.

With `CCc1cc(Nc2ccc3ccccc3c2)n2ncnc2n1` [Tz09], the Ki is 80 nM.

A further test deals with T1, s-PfDHODH.
Assay: not given
More on the design: method as in earlier work. As to conditions: literature data used to construct QSAR models; cited from earlier work.
Regarding `C/C(O)=C(/C#N)C(=O)Nc1ccc(-c2ccccc2)cc1Cl` [Compound D28], the IC50 is 51100 nM.

Consider `COc1ccccc1-c1ccc(NC(=O)/C(C#N)=C(\C)O)c(Cl)c1` [Compound D19], for which the IC50 is 8600 nM.

For the compound `C/C(O)=C(\C#N)C(=O)Nc1ccc(-c2ccccc2Cl)cc1C(F)(F)F` [Compound D18], the IC50 was 6200 nM.

For the compound `C/C(O)=C(/C#N)C(=O)Nc1ccc(-c2c(Cl)cccc2Cl)cc1Cl` [Compound D21], the IC50 is 10200 nM.

`C/C(O)=C(/C#N)C(=O)Nc1ccc(-c2ccccc2Cl)cc1Cl` [Compound D17]: the 50% inhibitory concentration (IC50) is 4000 nM.

For the compound `C/C(O)=C(/C#N)C(=O)Nc1ccc(-c2ccccc2)cc1` [Compound D10], the IC50 is 25700 nM.

For the compound `C/C(O)=C(/C#N)C(=O)Nc1ccc(-c2ccccc2Cl)cc1` [Compound D27], the half-inhibitory concentration (IC50) is 47400 nM.

Consider `C/C(O)=C(/C#N)C(=O)Nc1ccc(-c2ccccc2Cl)c(Cl)c1` [Compound D24], for which the IC50 was 165000 nM.

As for `N#C/C(C(=O)Nc1ccc(C(F)(F)F)cc1)=C(/O)C1CC1` [Compound D04], the IC50 was 92500 nM.

Turning to `C/C(O)=C(\C#N)C(=O)Nc1ccc(-c2cccc(Cl)c2)cc1C(F)(F)F` [Compound D23], the IC50 was 57200 nM.

For the compound `C/C(O)=C(/C#N)C(=O)Nc1ccc(-c2cccc(Cl)c2Cl)cc1` [Compound D26], the IC50 was 27200 nM.
